We go through 18 compounds from BindingDB's records for doi:10.1021/jm960720+ (Ansto, 1997).

In the first test the target is Sigma non-opioid intracellular receptor 1 (Cavia porcellus) (UniProt Q60492). Description: Receptor binding affinity against Sigma-1 receptor from guinea pig membranes.
Chain of Sigma non-opioid intracellular receptor 1 (Cavia porcellus) (Q60492 whole entry, looked up): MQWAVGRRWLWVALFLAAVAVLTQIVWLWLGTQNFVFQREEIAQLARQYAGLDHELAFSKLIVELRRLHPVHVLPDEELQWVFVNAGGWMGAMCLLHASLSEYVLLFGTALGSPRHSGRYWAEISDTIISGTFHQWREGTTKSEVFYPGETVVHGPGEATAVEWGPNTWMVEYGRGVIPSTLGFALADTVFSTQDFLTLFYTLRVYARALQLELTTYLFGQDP
Usually Ki stands for the equilibrium dissociation constant of an inhibitor or competing ligand from its target. Lower therefore signals tighter binding. `O=[N+]([O-])c1ccc(OCC2CCN(Cc3ccc(F)cc3)CC2)cc1` [1-(4-Fluoro-benzyl)-4-(4-nitro-phenoxymethyl)-piperidine] displayed a Ki of 1.2 nM. This counts as single-digit nanomolar.

For a further test the target is unchanged. Kind of test: In vitro for binding affinity at sigma-1 receptor by measuring its ability to displace [3H](+)-pentazocine from guinea pig membranes.
For `N#Cc1ccc(OCC2CCN(CCCF)CC2)cc1`, affinity was put at a Ki of 4.3 nM.

As to `FCCN1CCC(COc2ccc(I)cc2)CC1` [1-(2-Fluoro-ethyl)-4-(4-iodo-phenoxymethyl)-piperidine], the Ki is 0.84 nM.

For the compound `Fc1cccc(CN2CCC(COc3c(F)c(F)c(F)c(F)c3F)CC2)c1` [1-(3-Fluoro-benzyl)-4-pentafluorophenyloxymethyl-piperidine], the Ki turned out to be 3.3 nM.

For `FCCCN1CCC(COc2c(F)c(F)c(F)c(F)c2F)CC1` [1-(3-Fluoro-propyl)-4-pentafluorophenyloxymethyl-piperidine], affinity was put at a Ki of 1.7 nM. Compared with the last compound, the Ki is about 1.9-fold lower.

Turning to `Fc1ccc(CN2CCC(COc3c(F)c(F)c(F)c(F)c3F)CC2)cc1` [1-(4-Fluoro-benzyl)-4-pentafluorophenyloxymethyl-piperidine], the Ki came to 3.6 nM.

As for `Ic1ccc(OCC2CCN(CC3CC3)CC2)cc1` [1-Cyclopropylmethyl-4-(4-iodo-phenoxymethyl)-piperidine], the Ki was 0.5 nM.

`Fc1c(F)c(F)c(CN2CCC(COc3c(F)c(F)c(F)c(F)c3F)CC2)c(F)c1F` [1-Pentafluorophenylmethyl-4-pentafluorophenyloxymethyl-piperidine]: the inhibitory constant (Ki) was greater than 1000 nM.

As to `OCCN1CCC(COc2ccc(I)cc2)CC1` [2-[4-(4-Iodo-phenoxymethyl)-piperidin-1-yl]-ethanol], the Ki was 2.3 nM. That is a single-digit nanomolar value.

Regarding `N#Cc1ccccc1CN1CCC(COc2ccc(I)cc2)CC1` [2-[4-(4-Iodo-phenoxymethyl)-piperidin-1-ylmethyl]-benzonitrile], the Ki was found to be 10.5 nM.

`N#Cc1cccc(CN2CCC(COc3ccc(I)cc3)CC2)c1` [3-[4-(4-Iodo-phenoxymethyl)-piperidin-1-ylmethyl]-benzonitrile] registered a Ki of 2.9 nM. Against the preceding compound, the Ki is about 3.6-fold lower.

`Brc1cccc(OCC2CCN(CC3CC3)CC2)c1` [4-(3-Bromo-phenoxymethyl)-1-cyclopropylmethyl-piperidine] registered a Ki of 0.88 nM. This Ki lies about 3.3-fold lower than the previous one.

As for `FCCCN1CCC(COc2ccc(Br)cc2)CC1` [4-(4-Bromo-phenoxymethyl)-1-(3-fluoro-propyl)-piperidine], the inhibition constant Ki came to 0.38 nM. Compared with the last compound, the Ki is about 2.3-fold lower.

On to `Brc1ccc(OCC2CCN(CC3CC3)CC2)cc1` [4-(4-Bromo-phenoxymethyl)-1-cyclopropylmethyl-piperidine], for which the affinity corresponds to a Ki of 0.6 nM.

In turn, `N#Cc1ccc(OCC2CCN(Cc3ccccc3Br)CC2)cc1` [4-[1-(2-Bromo-benzyl)-piperidin-4-ylmethoxy]-benzonitrile] came in with a Ki of 2.02 nM. This Ki lies about 3.4-fold higher than the previous one.

On to `N#Cc1ccc(OCC2CCN(CCF)CC2)cc1` [4-[1-(2-Fluoro-ethyl)-piperidin-4-ylmethoxy]-benzonitrile], for which the Ki came to 24.3 nM.

For the compound `N#Cc1ccc(OCC2CCN(Cc3ccccc3I)CC2)cc1` [4-[1-(2-Iodo-benzyl)-piperidin-4-ylmethoxy]-benzonitrile], the affinity, expressed as Ki, was 9.24 nM.

On to `N#Cc1ccc(OCC2CCN(Cc3ccc(F)cc3)CC2)cc1` [4-[1-(4-Fluoro-benzyl)-piperidin-4-ylmethoxy]-benzonitrile], for which the inhibitory constant (Ki) was found to be 0.76 nM. Against the preceding compound, the Ki is about 12-fold lower.
